Literature values in US20090202626A1, “TREATMENT OF BLADDER DISEASES WITH A TLR7 ACTIVATOR” (priority 2008, published 2009).

Tests used:
[1] = system: orthotopic bladder cancer
superficial skin cancer = conditions: in vivo

CC(C)Cn1cnc2c(N)nc3ccccc3c21 [Imiquimod, imiquimod]
mice that developed tumors ([1]; 100 μg once weekly, placebo 11 of 13 mice (85%)): 3 of 14 | anti-tumor activity ([1]; orthotopic bladder cancer mouse model): potent anti-tumor activity | efficacy in superficial skin cancer (superficial skin cancer): demonstrated efficacy | effect on FCB bladder tumor (FCB bladder tumor; mice): cured mice | effect on chemically induced bladder cancer (FCB bladder tumor; mouse, in vivo): inhibited
